Series [1] in a line: Aqueous solubility (buffer vs acetonitrile/water, LC-UV). The format is physicochemical. As to conditions: kinetic from dmso stock, 2.5% DMSO. As to the method: The aqueous solubility of the compounds of the invention is determined by comparing the amount dissolved in buffer to the amount in an acetonitrile/water (1/1) solution. Starting from a 10 mM DMSO stock solution aliquots are diluted with acetonitrile/water (1/1) or buffer, respectively. After 24 h of shaking, the solutions are filtrated and analyzed by LC-UV. The amount dissolved in buffer is compared to the amount in the acetonitrile solution.
Solubility is usually being measured from 0.001 to 0.125 mg/mL at a DMSO concentration of 2.5%. If more than 90% of the compound is dissolved in buffer, the value is marked with “>”.

The target of the next series is human GPR40 receptor (Homo sapiens, UniProt O14842). As to the kind of experiment: IP1 accumulation measurements using the IPOne assay system. It counts as cell-based. As to conditions: 1321N1 cells stably expressing human GPR40; 1 h stimulation at 37° C. As to the method:
IP1 accumulation measurements using the IPOne assay system—1321N1 cells stably expressing human GPR40 receptor (Euroscreen, Belgium) are seeded 24 h before the assay in white 384-well plates in culture medium containing 10% FCS, 1% Na-Pyruvate and 400 μg/mL G418. IP1 is assayed according to the manufacturer's description (Cisbio Bioassays, France). In brief, the assay is started by substitution of the culture medium by stimulation buffer (Hepes 10 mM, CaCl2) 1 mM, MgCl2 0.5 mM, KCl 4.2 mM, NaCl 146 mM, glucose 5.5 mM and LiCl 50 mM, pH 7.4). Cells are stimulated for 1 h at 37° C., 5% CO2 by addition of the compounds that are diluted in stimulation buffer containing LiCl. Assays are stopped by adding HTRF-conjugates (IP1-d2 and Anti-IP1 cryptate Tb) and lysis buffer, provided by the manufacturer. After an incubation time of 1 h at room temperature plates are measured using an EnVision™, Perkin Elmer. The obtained fluorescence ratios at 665/615 […] are then used to calculate the pEC50 values using Assay Explorer 3.3 Software (Accelrys, Inc.) by interpolation using an IP1 reference curve and subsequent sigmoidal curve fitting allowing for a variable hill slope.

Setting [2] is: pH 2.2, 24 h shaking, read-out: Solubility at pH 2.2.
Setting [3] is: pH 6.8, 24 h shaking, read-out: Solubility at pH 6.8.

Among the data in patent publication US10913720B2, “Benzyloxypyridylcyclopropanecarboxylic acids, pharmaceutical compositions and uses thereof” (Boehringer Ingelheim International GmbH, priority 2017, dated 2021) are solubility and EC50 values, retold here.

The structures appear in SMILES notation. ≈ marks a conversion by molar mass, not a printed value. Read-outs that look alike come from different tables or passages of the source.

Sequence of human GPR40 receptor (O14842 whole entry): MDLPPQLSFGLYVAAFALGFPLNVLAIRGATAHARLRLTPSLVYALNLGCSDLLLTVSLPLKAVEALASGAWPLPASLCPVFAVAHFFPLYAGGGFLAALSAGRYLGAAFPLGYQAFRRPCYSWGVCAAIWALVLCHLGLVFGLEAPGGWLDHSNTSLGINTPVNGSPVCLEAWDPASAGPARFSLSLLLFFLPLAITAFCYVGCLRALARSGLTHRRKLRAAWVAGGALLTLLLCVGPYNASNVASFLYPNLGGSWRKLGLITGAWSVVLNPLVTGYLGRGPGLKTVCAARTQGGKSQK

On to `Cc1cc(OCCC(C)(C)O)cc(C)c1-c1ccc(F)c2c1CC[C@H]2Oc1ccc([C@H]2C[C@@H]2C(=O)O)cc1` [Example 17 in WO 2013/178575, reference compound], for which the solubility at 24 h in series [1] (setting [2]) and in series [1] (setting [3]) was below 1 µg/mL in each case.

On human GPR40 receptor, `Cc1cc(-c2nnn(C)n2)cc(C)c1-c1cccc(COc2ccc([C@H]3C[C@@H]3C(=O)O)nc2)c1` [Example 1, (1S,2S)-2-{5-[2′,6′-Dimethyl-4′-(2-methyl-2H-tetrazol-5-yl)-biphenyl-3-ylmethoxy]-pyridin-2-yl}-cyclopropanecarboxylic Acid] had an EC50 of 5 nM. The solubility at 24 h in series [1] (setting [2]) worked out at 7 µg/mL (≈ 15.4 µM); in series [1] (setting [3]) it was 19 µg/mL (≈ 41.7 µM).

Molecule `Cc1cc(OCCC(C)(C)O)cc(C)c1-c1cccc(COc2ccc([C@H]3C[C@@H]3C(=O)O)nc2)c1` [Example 3, (1S,2S)-2-{5-[4′-(3-Hydroxy-3-methyl-butoxy)-2′,6′-dimethyl-biphenyl-3-ylmethoxy]-pyridin-2-yl}-cyclopropanecarboxylic Acid] returned an EC50 on human GPR40 receptor of 19 nM. Besides, the results for the solubility at 24 h in series [1] (setting [2]) and in series [1] (setting [3]) were 24 µg/mL (≈ 50.5 µM) and 40 µg/mL (≈ 84.1 µM), respectively.

Regarding `Cc1cc(-c2nnn(C)n2)cc(C)c1-c1ccc(F)c2c1CC[C@H]2Oc1ccc([C@H]2C[C@@H]2C(=O)O)cc1` [Example 45 in WO 2013/178575, reference compound], the solubility at 24 h in series [1] (setting [2]) and in series [1] (setting [3]) was below 1 µg/mL in each case.

Turning to `Cc1cc(OCCCS(C)(=O)=O)cc(C)c1-c1cccc(COc2ccc([C@H]3C[C@@H]3C(=O)O)nc2)c1` [Example 16, (1S,2S)-2-{5-[4′-(3-Methanesulfonyl-propoxy)-2′,6′-dimethyl-biphenyl-3-ylmethoxy]-pyridin-2-yl}-cyclopropanecarboxylic Acid], the concentration for a half-maximal effect (EC50) at human GPR40 receptor was 37 nM.
